Source: patent US9526737B2, “Oxysterols for activation of hedgehog signaling, osteoinduction, antiadipogenesis, and Wnt signaling” (THE REGENTS OF THE UNIVERSITY OF CALIFORNIA, priority 2007, dated 2016)
Where two headings read alike, the source gives them in different places.

How the values were obtained:
[1] = tested on: M2-10B4 marrow stromal cells; test: Alkaline phosphatase (ALP) activity assay; conditions: for fold induction at 2.5 µM / fold induction at 5 µM / fold induction at 1.25 µM: M210B4, 72 h; for Alkaline phosphatase activity versus control vehicle (significance): 1.25 μM, 3 days, p>0.05
Description: The protocol is a modification of alkaline phosphatase assay kit from Sigma. Cells are cultured in 24-well tissue culture plates. After treatments with test agents, cells are rinsed twice with PBS and scraped into 200 ml of lysis buffer (0.2% NP-40 in 1 mM MgCl2) and sonicated for 10 seconds. Next, 1 ml of reaction mixture is added to each well. Reaction mixture is 221 alkaline buffer (Sigma): stock substrate solution (1:1). Stock substrate solution is prepared by dissolving 40 mg of Sigma 104 phosphatase substrate in 10 ml of ddH2O. After addition of reaction mixture to lysed cells, incubation is performed for 30 minutes at 37 C. […] The reaction is stopped by the addition of 12 ml of 1N NaOH to each well, and absorbance is determined at 405 nm. Alkaline phosphatase activity is calculated using p-nitrophenol as a standard, according to Sigma kit's instructions. Results are normalized to total protein in each well determined using the Bio-Rad protein assay solution (Bio-Rad Laboratories).
M2-10B4 marrow stromal cells were treated with oxysterols at various doses for 3 days after which they were collected and analyzed by calorimetric assay for alkaline phosphatase activity (a marker of osteoblastic differentiation) (Table 1); the alkaline phosphatase assay described above was used.
M2-10B4 marrow stromal cells were treated with oxysterols at various doses for 3 days after which they were collected and analyzed by colorimetric assay for alkaline phosphatase activity (a marker of osteoblastic differentiation) (Table 2); the alkaline phosphatase assay described above was used.
M2-10B4 bone marrow stromal cells were treated in culture with control vehicle (C) or various oxysterol (Oxy) molecules as indicated at either 1.25 (1) or 2.5 (2) μM concentrations. After 3 days of treatment, alkaline phosphatase activity as a measure of early osteogenic differentiation of cells was measured in whole cell lysates (See FIG. 9 and Table 3); the alkaline phosphatase assay described above was used.

marrow stromal cells = test: Osteoinductive properties (osteoblast differentiation markers: ALP activity, osteocalcin mRNA, mineralization); type: cell-based; conditions: induction of osteoblast differentiation markers
Source text: Oxysterols discussed in this application include those designated as Oxy22, Oxy26, Oxy27, Oxy28, Oxy39, Oxy40, Oxy41, Oxy42, Oxy48, Oxy49, Oxy20, Oxy34, Oxy36, Oxy38, Oxy50, Oxy51, Oxy52, and Oxy53. At least the following oxysterols have been identified as osteoinductive: Oxy22, Oxy26, Oxy27, Oxy28, Oxy39, Oxy40, Oxy41, Oxy42, Oxy48, Oxy49, Oxy50, Oxy51, Oxy52, and Oxy53. The osteoinductive properties of these oxysterols is shown by their ability to induce the expression of various osteoblast differentiation markers, including alkaline phosphatase activity, osteocalcin mRNA expression, and mineralization. These oxysterols are activators of the hedgehog signaling pathway.

[2] = tested on: Wnt Inhibitory factor-1 (Wif-1) mRNA expression; type: cell-based; conditions: M2 cells pre-treated 2 h with inhibitor, then 5 μM SS for 48 h
Description: (§1) Total RNA was extracted with the RNA isolation kit from Stratagene (La Jolla, Calif.) according to the manufacturer's instructions. RNA was DNase-treated using the DNA-free kit from Ambion, Inc. (Austin, Tex.). 3 μg of RNA was reverse-transcribed using reverse transcriptase from Stratagene (La Jolla, Calif.) to make single stranded cDNA. The cDNAs were mixed with Qi SYBR Green Supermix from Bio-Rad Laboratories (Hercules, Calif.) for quantitative RT-PCR using a Bio-Rad I-cycler IQ quantitative thermocycler. All PCR samples were prepared in triplicate or quadruplicate. Each sample was added to duplicate wells of a 96-well plate. After 40 cycles of PCR, melt curves were analyzed in order to ensure primer specificity, and the identity of all PCR products were verified by sequencing and comparing with the complete mRNA sequence obtained from PubMed's GenBank. Fold changes in gene expression were calculated using the ΔΔCt method (14). All primers were designed using the Beacon Designer software from Bio-Rad Laboratories (Hercules, Calif.). Primers used are as follows: OCN (5′-[…]-3′ (SEQ ID NO: 1) and 5′-[…]-3′ (SEQ ID NO: 2)), Axin2(5′[…]-3′ (SEQ ID NO: 3) and 5′-[…]-3′ (SEQ ID NO: 4)), Cyclin D1(5′-[…]-3′ (SEQ ID NO: 5) and 5′-[…]-3′ (SEQ ID NO: 6)), NKD2 (5′-[…]-3′ (SEQ ID NO: 7) and 5′[…]-3′ (SEQ ID NO: 8)), WIF-1 (5′-[…]-3′ (SEQ ID NO: 9) and 5′-[…]-3′ (SEQ ID NO: 10)), and GAPDH (5′-[…]-3′ (SEQ ID NO: 11) and 5′-[…]-3′ (SEQ ID NO: 12)).
(§2) M2 cells were treated with 5 μM SS, 200 ng/ml Shh, or control vehicle for 48 h. RNA was isolated and analyzed by Q-RT-PCR for Nkd2 (E) and WIF-1 (F) expression (See FIGS. 4E and 4F).
(§3) M2 cells were pre-treated for 2 h with vehicle or cyclopamine (Cyc) at the concentrations indicated. Next, cells were treated with 5 μM SS or control vehicle for 48 h. RNA was isolated and analyzed for Nkd2 (A) and WIF-1 (B) expression by Q-RT-PCR (See FIGS. 5A and 5B).
(§4) M2 cells were pre-treated for 2 h with Dkk-1 or vehicle. Next, cells were treated with 5 μM SS or control vehicle for 48 h. RNA was isolated and analyzed for Nkd2 (C), Wif-1 (D), and Ptch (E) expression (See FIGS. 5C-5E).
(§5) M2 cells were pre-treated for 2 h with 5 μM LY, 2.5 μM Wm, or vehicle followed by treatment with 5 μM SS or control vehicle for 48 h. RNA was isolated and analyzed for Nkd2 (FIG. 7E) and Wif-1 (FIG. 7F) expression.

[3] = tested on: Naked Cuticle 2 (Nkd2) mRNA expression; type: cell-based; conditions: M2 cells pre-treated 2 h with inhibitor, then 5 μM SS for 48 h
Description: as §1, §2, §3, §4, §5

[4] = tested on: Patched (Ptch) mRNA expression; test: Q-RT-PCR for Patched (Ptch) mRNA expression; type: cell-based; conditions: M2 cells pre-treated 2 h with inhibitor, then 5 μM SS for 48 h
Description: Total RNA was extracted with the RNA isolation kit from Stratagene (La Jolla, Calif.) according to the manufacturer's instructions. RNA was DNase-treated using the DNA-free kit from Ambion, Inc. (Austin, Tex.). 3 μg of RNA was reverse-transcribed using reverse transcriptase from Stratagene (La Jolla, Calif.) to make single stranded cDNA. The cDNAs were mixed with Qi SYBR Green Supermix from Bio-Rad Laboratories (Hercules, Calif.) for quantitative RT-PCR using a Bio-Rad I-cycler IQ quantitative thermocycler. All PCR samples were prepared in triplicate or quadruplicate. Each sample was added to duplicate wells of a 96-well plate. After 40 cycles of PCR, melt curves were analyzed in order to ensure primer specificity, and the identity of all PCR products were verified by sequencing and comparing with the complete mRNA sequence obtained from PubMed's GenBank. Fold changes in gene expression were calculated using the ΔΔCt method (14). All primers were designed using the Beacon Designer software from Bio-Rad Laboratories (Hercules, Calif.). […]
M2 cells were pre-treated for 2 h with Dkk-1 or vehicle. […] RNA was isolated and analyzed for Nkd2 (C), Wif-1 (D), and Ptch (E) expression (See FIGS. 5C-5E).

[5] = read-out: Fold Induction in alkaline phosphatase activity compared to control untreated cells
[6] = read-out: Fold Induction in alkaline phosphatase activity over control untreated cells

| Compound | fold induction at 2.5 µM [1, 5] | fold induction at 5 µM [1, 5] | Osteoinductive property (marrow stromal cells) | further results |
| --- | --- | --- | --- | --- |
| CC(C)C/C=C/[C@](C)(O)C1CC[C@H]2[C@@H]3CC=C4C[C@@H](O)CC[C@]4(C)[C@H]3CC[C@]12C (stereo partly drawn) [Oxy20, (3S,8S,9S,10R,13S,14S)-17-((S,E)-2-hydroxy-6-methylhept-3-en-2-yl)-10,13-dimethyl-2,3,4,7,8,9,10,11,12,13,14,15,16,17-tetradecahydro-1H-cyclopenta[a]phenanthren-3-ol] | 36 | 68 |  |  |
| C[C@]12CCC3C(CC=C4C[C@@H](O)CC[C@@]43C)C1CCC2[C@@](C)(O)CCCc1ccccc1 (stereo partly shown) [Oxy22] | 4 | 9 | osteoinductive |  |
| C[C@]12CC[C@H]3[C@@H](CC=C4C[C@@H](O)CC[C@@]43C)[C@@H]1CC[C@@H]2[C@@](C)(O)CC#Cc1cccs1 [Oxy26, (3S,8S,9S,10R,13S,14S,17S)-17-((S)-2-Hydroxy-5-(thiophen-2-yl)pent-4-yn-2-yl)-10,13-dimethyl-2,3,4,7,8,9,10,11,12,13,14,15,16,17-tetradecahydro-1H-cyclopenta-[a]phenanthren-3-ol] | 27 | 76 | osteoinductive |  |
| C[C@]12CC[C@H]3[C@@H](CC=C4C[C@@H](O)CC[C@@]43C)[C@@H]1CC[C@@H]2[C@@](C)(O)CCc1ccccc1 [Oxy27, (3S,8S,9S,10R,13S,14S,17S)-17-((S)-2-Hydroxy-4-phenylbutan-2-yl)-10,13-dimethyl-2,3,4,7,8,9,10,11,12,13,14,15,16,17-tetradecahydro-1H-cyclopenta[a]phenanthren-3-ol] | 17 | 42 | osteoinductive |  |
| CC(=O)O[C@H]1CC2C3CCC([C@@](C)(O)CCCC(C)C)[C@@]3(C)CCC2[C@@]2(C)CC[C@H](O)C[C@H]12 (stereo partly shown) [Oxy28] | 59 | 75 | osteoinductive |  |
| C[C@]12CC[C@H]3[C@@H](CC=C4C[C@@H](O)CC[C@@]43C)[C@@H]1CC[C@@H]2[C@@](C)(O)CCc1ccccc1F [Oxy39, (3S,8S,9S,10R,13S,14S,17S)-17-((S)-4-(2-Fluorophenyl)-2-hydroxybutan-2-yl)-10,13-dimethyl-2,3,4,7,8,9,10,11,12,13,14,15,16,17-tetradecahydro-1H-cyclopenta[a]phen-anthren-3-ol] | 52 | 148 | osteoinductive |  |
| CC(CO)CCC[C@](C)(O)[C@H]1CC[C@H]2[C@@H]3CC=C4C[C@@H](O)CC[C@]4(C)[C@H]3CC[C@@]21C (stereo partly shown) [Oxy40] | 28 | 105 | osteoinductive |  |
| C=C(C)CCC[C@](C)(O)[C@H]1CC[C@H]2[C@@H]3C[C@H](OC(C)=O)[C@H]4C[C@@H](O)CC[C@]4(C)[C@H]3CC[C@@]21C [Oxy41, (3S,5S,6S,8R,9S,10R,13S,14S,17S)-3-Hydroxy-17-((S)-2-hydroxy-6-methylhept-6-en-2-yl)-10,13-dimethylhexadecahydro-1H-cyclopenta[a]phenanthren-6-yl acetate] | 46 | 175 | osteoinductive |  |
| C[C@]12CC[C@H]3[C@@H](CC=C4C[C@@H](O)CC[C@@]43C)[C@@H]1CC[C@@H]2[C@@](C)(O)CCCc1cccs1 [Oxy42, (3S,8S,9S,10R,13S,14S,17S)-17-((S)-2-Hydroxy-5-(thiophen-2-yl)pentan-2-yl)-10,13-dimethyl-2,3,4,7,8,9,10,11,12,13,14,15,16,17-tetradecahydro-1H-cyclopenta[a]phen-anthren-3-ol] | 166 | 290 | osteoinductive |  |
| CC(CO)CCC[C@](C)(O)[C@H]1CC[C@H]2[C@@H]3C[C@H](O)[C@H]4C[C@@H](O)CC[C@]4(C)[C@H]3CC[C@@]21C (stereo partly drawn) [Oxy48, (3S,5S,6S,8R,9S,10R,13S,14S,17S)-17-((2S)-2,7-Dihydroxy-6-methylheptan-2-yl)-10,13-dimethylliexadecahydro-1H-cyclopenta[a]phenanthrene-3,6-diol] | 11 | 43 | osteoinductive |  |
| C[C@]12CC[C@H](O)C[C@@H]1[C@@H](O)C[C@@H]1[C@@H]2CC[C@@]2(C)[C@H]1CC[C@@H]2[C@@](C)(O)CCCc1cccs1 [Oxy50, (3S,5S,6S,8R,9S,10R,13S,14S,17S)-17-((S)-2-hydroxy-5-(thiophen-2-yl)pentan-2-yl)-10,13-dimethylhexadecahydro-1H-cyclopenta[a]phenanthrene-3,6-diol] |  |  | osteoinductive | fold induction at 1.25 µM [1, 6]: 25; fold induction at 2.5 µM [1, 6]: 65 |
| C[C@]12CC[C@H](O)C[C@@H]1[C@@H](O)C[C@@H]1[C@@H]2CC[C@@]2(C)[C@H]1CC[C@@H]2[C@@](C)(O)CC#Cc1cccs1 [Oxy51, (3S,5S,6S,8R,9S,10R,13S,14S,17S)-17-((S)-2-hydroxy-5-(thiophen-2-yl)pent-4-yn-2-yl)-10,13-dimethylhexadecahydro-1H-cyclopenta[a]phenanthrene-3,6-diol] |  |  | osteoinductive | Alkaline phosphatase activity versus control vehicle (significance) [1]: not significant; fold induction at 1.25 µM [1, 6]: 3; fold induction at 2.5 µM [1, 6]: 20 |
| C[C@]12CC[C@H](O)C[C@@H]1[C@@H](O)C[C@@H]1[C@@H]2CC[C@@]2(C)[C@H]1CC[C@@H]2[C@@](C)(O)CCc1ccccc1 [Oxy52, (3S,5S,6S,8R,9S,10R,13S,14S,17S)-17-((S)-2-hydroxy-4-phenylbutan-2-yl)-10,13-dimethylhexadecahydro-1H-cyclopenta[a]phenanthrene-3,6-diol] |  |  | osteoinductive | fold induction at 1.25 µM [1, 6]: 5; fold induction at 2.5 µM [1, 6]: 22 |
| C[C@]12CC[C@H](O)C[C@@H]1[C@@H](O)C[C@@H]1[C@@H]2CC[C@@]2(C)[C@H]1CC[C@@H]2[C@@](C)(O)CCCc1ccccc1 [Oxy53, (3S,5S,6S,8R,9S,10R,13S,14S,17S)-17-((S)-2-hydroxy-5-phenylpentan-2-yl)-10,13-dimethylhexadecahydro-1H-cyclopenta[a]phenanthrene-3,6-diol] |  |  | osteoinductive | Alkaline phosphatase activity versus control vehicle (significance) [1]: not significant; fold induction at 1.25 µM [1, 6]: 2; fold induction at 2.5 µM [1, 6]: 11 |
| CC1=C2C[C@H]3[C@@H](CC=C4C[C@@H](O)CC[C@@]43C)[C@@H]2CC[C@]12O[C@@H]1C[C@H](C)CN[C@H]1[C@H]2C [cyclopamine, reference compound] |  |  |  | Inhibition of oxysterol-induced Wif-1 expression [2]: completely blocked; Inhibition of oxysterol-induced Nkd2 expression [3]: did not inhibit; Inhibition of oxysterol-induced Patched (Ptch) mRNA expression [4]: completely abolished |
